Results published in US9309248B2, “Azaindolines” (Hoffmann-La Roche Inc., priority 2012, dated 2016).

What was measured:
[1] = molecular target: T1, BIR3 domain of XIAP (Homo sapiens, UniProt P98170); assay: TR-FRET assay for BIR3 (inhibition of binding of XIAP BIR3 domain to SMAC-derived Peptide A); settings: 6x Histidine-tagged BIR3 domain (amino acids 241-356 of XIAP) 10 nM, Peptide A 20 nM
T1 construct: BIR3 domain, corresponding to amino acids 241-356 of XIAP
Protocol: (§1) TR-FRET Assay for BIR2 and BIR3
(§2) The ability of a test compound to inhibit the binding of BIR2 and/or BIR3 domains of the XIAP protein to Peptide A (a SMAC-derived peptide described below) evidences that the test compound acts as a SMAC-mimetic resulting in reactivation of a cell's apoptotic pathway.
(§3) The peptides were labeled with the fluorescent tags FITC or TAMRA and Kd values were determined by fluorescence polarization assay. […] The peptide sequence was derivatized with biotin to provide […]-(ε-biotin)-OH 1:2 TFA as the substrate for the TR-FRET assay.
The sequence of the BIR3 domain used for the TR-FRET assay is […]
Ten nanomolar of 6× Histidine-tagged BIR2 domain, corresponding to amino acids 124-240 of XIAP, or BIR3 domain, corresponding to amino acids 241-356 of XIAP, was mixed with 20 nM of the peptide […]-(z-biotin)-OH 1:2 TFA, in the presence of 50 mM Tris-Cl, pH 7.5, 100 mM NaCl, 1 mM dithiothreitol (DTT) and 0.1 mg/mL bovine serum albumin (BSA). Following a […] incubation at 37° C., Europium-Streptavidin and Allophycocyanin conjugated anti-Histidine antibody were added to a final concentration of 1.5 nM and 15 nM, respectively. Time-resolved fluorescence resonance energy transfer (TR-FRET) signals were measured 1 hour later at room temperature. Test compound potency was assessed at 10 serially diluted concentrations. Percentage of inhibition at each concentration was determined to generate an IC50 value for each test compound.

[2] = molecular target: T2, BIR2 domain of XIAP (Homo sapiens, UniProt P98170, C202A/C213G); assay: TR-FRET assay for BIR2 (inhibition of binding of XIAP BIR2 domain to SMAC-derived Peptide A); settings: 6x Histidine-tagged BIR2 domain (amino acids 124-240 of XIAP) 10 nM, Peptide A 20 nM
T2 construct: 6× Histidine-tagged BIR2 domain, corresponding to amino acids 124-240 of XIAP
T2 sequence (P98170 with tags, fused parts or gaps C202A/C213G): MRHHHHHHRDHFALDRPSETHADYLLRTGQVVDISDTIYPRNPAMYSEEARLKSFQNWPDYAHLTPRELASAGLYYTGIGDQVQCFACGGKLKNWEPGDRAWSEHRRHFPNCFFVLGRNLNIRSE
Protocol: as §1, §2, §3
The XIAP protein sequence was obtained from the SWISS-PROT protein sequence database and the BIR2 and BIR3 domains were derived from that. The sequence of the BIR2 domain used for the TR-FRET assay is […].
Time-resolved fluorescence resonance energy transfer (TR-FRET) signals were measured 1 hour later at room temperature. Test compound potency was assessed at 10 serially diluted concentrations. Percentage of inhibition at each concentration was determined to generate an IC50 value for each test compound.

T1 sequence (P98170 with tags, fused parts or gaps): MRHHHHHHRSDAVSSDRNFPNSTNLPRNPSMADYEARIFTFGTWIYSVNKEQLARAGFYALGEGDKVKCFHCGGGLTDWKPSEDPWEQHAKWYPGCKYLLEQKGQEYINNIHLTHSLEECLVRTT

Structure (SMILES)	IC50 [1] [nM]	IC50 [2] [nM]
CN[C@@H](C)C(=O)N[C@H](C(=O)N1c2ncccc2C[C@H]1C(=O)Nc1ccc(OC)cc1F)C(C)C [Example 47, (S)-1-[(S)-3-Methyl-2-((S)-2-methylamino-propionylamino)-butyryl]-2,3-dihydro-1H-pyrrolo[2,3-b]pyridine-2-carboxylic acid (2-fluoro-4-methoxy-phenyl)-amide]	> 54800	4.29
CN[C@@H](C)C(=O)N[C@H](C(=O)N1c2ncccc2C[C@H]1C(=O)Nc1ccccc1C#N)C(C)C [Example 48, (S)-1-[(S)-3-Methyl-2-((S)-2-methylamino-propionylamino)-butyryl]-2,3-dihydro-1H-pyrrolo[2,3-b]pyridine-2-carboxylic acid (2-cyano-phenyl)-amide]	> 54800	54.9
CN[C@@H](C)C(=O)N[C@H](C(=O)N1c2ncccc2C[C@H]1C(=O)Nc1ccc(C(=O)OC)cc1F)C(C)C [Example 49, 3-Fluoro-4-({(S)-1-[(S)-3-methyl-2-((S)-2-methylamino-propionylamino)-butyryl]-2,3-dihydro-1H-pyrrolo[2,3-b]pyridine-2-carbonyl}-amino)-benzoic acid methyl ester]	> 54800	102
CN[C@@H](C)C(=O)N[C@H](C(=O)N1c2ncccc2C[C@H]1C(=O)Nc1ccc2ccccc2c1)C(C)C [Example 57, (S)-1-[(S)-3-Methyl-2-((S)-2-methylamino-propionylamino)-butyryl]-2,3-dihydro-1H-pyrrolo[2,3-b]pyridine-2-carboxylic acid naphthalen-2-ylamide]	> 54800	164
CN[C@@H](C)C(=O)N[C@H](C(=O)N1c2ncccc2C[C@H]1C(=O)Nc1ccc(C#N)cc1F)C(C)C [Example 58, (S)-1-[(S)-3-Methyl-2-((S)-2-methylamino-propionylamino)-butyryl]-2,3-dihydro-1H-pyrrolo[2,3-b]pyridine-2-carboxylic acid (4-cyano-2-fluoro-phenyl)-amide]	> 54800	140
CN[C@@H](C)C(=O)N[C@H](C(=O)N1c2ncccc2C[C@H]1C(=O)Nc1ccc(C(F)(F)F)cc1F)C(C)C [Example 59, (S)-1-[(S)-3-Methyl-2-((S)-2-methylamino-propionylamino)-butyryl]-2,3-dihydro-1H-pyrrolo[2,3-b]pyridine-2-carboxylic acid (2-fluoro-4-trifluoromethyl-phenyl)-amide]	> 54800	53.6
CN[C@@H](C)C(=O)N[C@H](C(=O)N1c2ncccc2C[C@H]1C(=O)Nc1cccc(F)c1F)C(C)C [Example 60, (S)-1-[(S)-3-Methyl-2-((S)-2-methylamino-propionylamino)-butyryl]-2,3-dihydro-1H-pyrrolo[2,3-b]pyridine-2-carboxylic acid (2,3-difluoro-phenyl)-amide]	> 54800	38.2
CN[C@@H](C)C(=O)N[C@H](C(=O)N1c2ncccc2C[C@H]1C(=O)Nc1cc(F)ccc1F)C(C)C [Example 61, (S)-1-[(S)-3-Methyl-2-((S)-2-methylamino-propionylamino)-butyryl]-2,3-dihydro-1H-pyrrolo[2,3-b]pyridine-2-carboxylic acid (2,5-difluoro-phenyl)-amide]	> 54800	34.8

Other lines, results leading:

IC50 [1] [nM]	IC50 [2] [nM]	Structure (SMILES)
> 54800	3.8	CN[C@@H](C)C(=O)N[C@H](C(=O)N1c2ncccc2C[C@H]1C(=O)Nc1cc(C)ccc1F)C(C)C [Example 44, (S)-1-[(S)-3-Methyl-2-((S)-2-methylamino-propionylamino)-butyryl]-2,3-dihydro-1H-pyrrolo[2,3-b]pyridine-2-carboxylic acid (2-fluoro-5-methyl-phenyl)-amide]
> 54800	304	CN[C@@H](C)C(=O)N[C@H](C(=O)N1c2ncccc2C[C@H]1C(=O)Nc1cc(C)cc(C)c1)C(C)C [Example 45, (S)-1-[(S)-3-Methyl-2-((S)-2-methylamino-propionylamino)-butyryl]-2,3-dihydro-1H-pyrrolo[2,3-b]pyridine-2-carboxylic acid (3,5-dimethyl-phenyl)-amide]
> 54800	4.04	CN[C@@H](C)C(=O)N[C@H](C(=O)N1c2ncccc2C[C@H]1C(=O)Nc1ccc(C)cc1F)C(C)C [Example 46, (S)-1-[(S)-3-Methyl-2-((S)-2-methylamino-propionylamino)-butyryl]-2,3-dihydro-1H-pyrrolo[2,3-b]pyridine-2-carboxylic acid (2-fluoro-4-methyl-phenyl)-amide]
> 54800	89.3	CN[C@@H](C)C(=O)N[C@H](C(=O)N1c2ncccc2C[C@H]1C(=O)Nc1ccc(S(C)(=O)=O)cc1F)C(C)C [Example 50, (S)-1-[(S)-3-Methyl-2-((S)-2-methylamino-propionylamino)-butyryl]-2,3-dihydro-1H-pyrrolo[2,3-b]pyridine-2-carboxylic acid (2-fluoro-4-methanesulfonyl-phenyl)-amide]
> 54800	828	CN[C@@H](C)C(=O)N[C@H](C(=O)N1c2ncccc2C[C@H]1C(=O)NCCS(C)(=O)=O)C(C)C [Example 51, (S)-1-[(S)-3-Methyl-2-((S)-2-methylamino-propionylamino)-butyryl]-2,3-dihydro-1H-pyrrolo[2,3-b]pyridine-2-carboxylic acid (2-methanesulfonyl-ethyl)-amide]
21500	978	CN[C@@H](C)C(=O)N[C@H](C(=O)N1c2ncccc2C[C@H]1C(=O)NC(C)c1ccccc1)C(C)C (stereo partly drawn) [Example 52, (S)-1-[(S)-3-Methyl-2-((S)-2-methylamino-propionylamino)-butyryl]-2,3-dihydro-1H-pyrrolo[2,3-b]pyridine-2-carboxylic acid (1-phenyl-ethyl)-amide]
> 54800	740	CN[C@@H](C)C(=O)N[C@H](C(=O)N1c2ncccc2C[C@H]1C(=O)NCCS(=O)(=O)N(C)C)C(C)C [Example 53, (S)-1-[(S)-3-Methyl-2-((S)-2-methylamino-propionylamino)-butyryl]-2,3-dihydro-1H-pyrrolo[2,3-b]pyridine-2-carboxylic acid (2-dimethylsulfamoyl-ethyl)-amide]
47400	4730	CN[C@@H](C)C(=O)N[C@H](C(=O)N1c2ncccc2C[C@H]1C(=O)NC(C)(C)c1ccccc1)C(C)C [Example 54, (S)-1-[(S)-3-Methyl-2-((S)-2-methylamino-propionylamino)-butyryl]-2,3-dihydro-1H-pyrrolo[2,3-b]pyridine-2-carboxylic acid (1-methyl-1-phenyl-ethyl)-amide]
35300	139	CN[C@@H](C)C(=O)N[C@H](C(=O)N1c2ncccc2C[C@H]1C(=O)NCc1cc(F)ccc1C)C(C)C [Example 55, (S)-1-[(S)-3-Methyl-2-((S)-2-methylamino-propionylamino)-butyryl]-2,3-dihydro-1H-pyrrolo[2,3-b]pyridine-2-carboxylic acid 5-fluoro-2-methyl-benzylamide]
> 54800	1630	CN[C@@H](C)C(=O)N[C@H](C(=O)N1c2ncccc2C[C@H]1C(=O)Nc1cncnc1)C(C)C [Example 56, (S)-1-[(S)-3-Methyl-2-((S)-2-methylamino-propionylamino)-butyryl]-2,3-dihydro-1H-pyrrolo[2,3-b]pyridine-2-carboxylic acid pyrimidin-5-ylamide]
> 54800	35.1	CN[C@@H](C)C(=O)N[C@H](C(=O)N1c2ncccc2C[C@H]1C(=O)Nc1ccc(C(=O)N(C)C)cc1F)C(C)C [Example 62, (S)-1-[(S)-3-Methyl-2-((S)-2-methylamino-propionylamino)-butyryl]-2,3-dihydro-1H-pyrrolo[2,3-b]pyridine-2-carboxylic acid (4-dimethylcarbamoyl-2-fluoro-phenyl)-amide]
> 54800	32	CN[C@@H](C)C(=O)N[C@H](C(=O)N1c2ncccc2C[C@H]1C(=O)Nc1ccc(Br)cc1F)C(C)C [Example 63, (S)-1-[(S)-3-Methyl-2-((S)-2-methylamino-propionylamino)-butyryl]-2,3-dihydro-1H-pyrrolo[2,3-b]pyridine-2-carboxylic acid (4-bromo-2-fluoro-phenyl)-amide]
